Several values for one entry are separate records, joined by “and”; a condition that tells them apart may be missing. Equal values may be shown once. Toxic doses and inconclusive results are not listed.
Test system: L1210 leukemia ip in BDF1 mice, survival T/C
Experiment: NCI In Vivo Anticancer Drug Screen. Data for tumor model L1210 Leukemia (intraperitoneal) in B6D2F1 (BDF1) mice
Settings: endpoint: mean survival time, higher = longer survival
Procedure, shortened: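 In this screen, tumor-bearing mice given compound are compared to those given vehicle, and their survival values are reported as a treated-to-control quotient.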

[1] = dose: 100.0 mg/kg/injection, schedule: Q01DX001 (ip), vehicle: saline
[2] = dose: 200.0 mg/kg/injection, schedule: Q01DX001 (ip), vehicle: saline
[3] = dose: 400.0 mg/kg/injection, schedule: Q01DX001 (ip), vehicle: saline
[4] = dose: 100.0 mg/kg/injection, schedule: Q04DX003 (ip), vehicle: saline

COc1ccc(C(=O)C=C(C(F)(F)F)C(F)(F)F)cc1
T/C (dose: 25.0 mg/kg/injection, schedule: Q04DX003 (ip), vehicle: saline with Tween-80): 93 % of control | T/C (dose: 50.0 mg/kg/injection, schedule: Q04DX003 (ip), vehicle: saline with Tween-80): 102 % of control | T/C (dose: 100.0 mg/kg/injection, schedule: Q04DX003 (ip), vehicle: saline with Tween-80): 100 % of control and 102 % of control

CCOC(=O)C1=CC2(c3ccccc3)CC1(c1ccccc1)C(c1ccccc1)=C2c1ccccc1 (stereo not given)
T/C (dose: 50.0 mg/kg/injection, schedule: Q01DX001 (ip), vehicle: carboxymethylcellulose (CMC)): 97 % of control | T/C (dose: 100.0 mg/kg/injection, schedule: Q01DX001 (ip), vehicle: carboxymethylcellulose (CMC)): 92 % of control | T/C (dose: 200.0 mg/kg/injection, schedule: Q01DX001 (ip), vehicle: carboxymethylcellulose (CMC)): 94 % of control | T/C (dose: 400.0 mg/kg/injection, schedule: Q01DX001 (ip), vehicle: carboxymethylcellulose (CMC)): 89 % of control

Brc1cccc[n+]1-c1cccc(-c2cccc(-[n+]3ccccc3Br)c2)c1
T/C (dose: 9.38 mg/kg/injection, schedule: Q01DX001 (ip), vehicle: other): 100 % of control | T/C (dose: 18.75 mg/kg/injection, schedule: Q01DX001 (ip), vehicle: other): 101 % of control

O=Cc1c(Cl)n(C(=O)c2ccccc2Cl)c2ccccc12
T/C (dose: 100.0 mg/kg/injection, schedule: Q04DX002 (ip), vehicle: Klucel (hydroxypropylcellulose) (HPC)): 97 % of control | T/C (dose: 200.0 mg/kg/injection, schedule: Q04DX002 (ip), vehicle: Klucel (hydroxypropylcellulose) (HPC)): 86 % of control

O=[N+]([O-])c1cc(C(F)(F)F)cc([N+](=O)[O-])c1NN=C1CCCCC1
T/C (dose: 100.0 mg/kg/injection, schedule: Q01DX009 (ip), vehicle: gum acacia): 93 % of control | T/C (dose: 200.0 mg/kg/injection, schedule: Q01DX009 (ip), vehicle: gum acacia): 91 % of control | T/C (dose: 400.0 mg/kg/injection, schedule: Q01DX009 (ip), vehicle: gum acacia): 96 % of control

O=C(O)/C=C\C=C\c1ccccc1
T/C [1]: 89 % of control | T/C [2]: 94 % of control | T/C [3]: 96 % of control

CCOP(=O)(N1CC1(C)C)N1CC1(C)C (stereo not given)
T/C (dose: 1.0 mg/kg/injection, schedule: Q01DX009 (ip), vehicle: saline): 100 % of control | T/C (dose: 2.0 mg/kg/injection, schedule: Q01DX009 (ip), vehicle: saline): 105 % of control | T/C (dose: 4.0 mg/kg/injection, schedule: Q01DX009 (ip), vehicle: saline): 110 % of control | T/C (dose: 20.0 mg/kg/injection, schedule: Q01DX009 (ip), vehicle: saline): 161 % of control | T/C (dose: 25.0 mg/kg/injection, schedule: Q01DX001 (ip), vehicle: other): 209 % of control | T/C (dose: 30.0 mg/kg/injection, schedule: Q01DX009 (ip), vehicle: saline): 209 % of control | T/C (dose: 50.0 mg/kg/injection, schedule: Q01DX001 (ip), vehicle: other): 201 % of control | T/C (dose: 52.0 mg/kg/injection, schedule: Q01DX009 (ip), vehicle: Klucel (hydroxypropylcellulose) (HPC)): 177 % of control | T/C (dose: 53.0 mg/kg/injection, schedule: Q01DX001 (ip), vehicle: saline): 152 % of control | T/C (dose: 80.0 mg/kg/injection, schedule: Q01DX001 (ip), vehicle: other): 151 % of control | T/C (dose: 80.0 mg/kg/injection, schedule: Q01DX001 (ip), vehicle: saline): 152 % of control | T/C (dose: 80.0 mg/kg/injection, schedule: Q01DX009 (ip), vehicle: saline): 91 % of control | T/C (dose: 120.0 mg/kg/injection, schedule: Q01DX001 (ip), vehicle: other): 162 % of control | T/C (dose: 120.0 mg/kg/injection, schedule: Q01DX001 (ip), vehicle: saline): 273 % of control | T/C (dose: 177.0 mg/kg/injection, schedule: Q01DX001 (ip), vehicle: saline): 174 % of control | T/C (dose: 180.0 mg/kg/injection, schedule: Q01DX001 (ip), vehicle: other): 224 % of control | T/C (dose: 200.0 mg/kg/injection, schedule: Q01DX001 (ip), vehicle: other): 223 % of control | T/C (dose: 400.0 mg/kg/injection, schedule: Q01DX001 (ip), vehicle: other): 226 % of control

COc1ccc(-n2c(=O)c(N=Nc3ccc(Cl)cc3)c(O)n(-c3ccccc3OC)c2=S)cc1
T/C (dose: 50.0 mg/kg/injection, schedule: Q01DX001 (ip), vehicle: Klucel (hydroxypropylcellulose) (HPC)): 110 % of control | T/C (dose: 100.0 mg/kg/injection, schedule: Q01DX001 (ip), vehicle: Klucel (hydroxypropylcellulose) (HPC)): 102 % of control | T/C (dose: 200.0 mg/kg/injection, schedule: Q01DX001 (ip), vehicle: Klucel (hydroxypropylcellulose) (HPC)): 100 % of control

C[n+]1ccccc1/C=C/c1ccc2c(c1)OCO2
T/C (dose: 12.5 mg/kg/injection, schedule: Q01DX009 (ip), vehicle: Klucel (hydroxypropylcellulose) (HPC)): 94 % of control | T/C (dose: 12.5 mg/kg/injection, schedule: Q04DX003 (ip), vehicle: Klucel (hydroxypropylcellulose) (HPC)): 95 % of control | T/C (dose: 25.0 mg/kg/injection, schedule: Q01DX009 (ip), vehicle: Klucel (hydroxypropylcellulose) (HPC)): 92 % of control | T/C (dose: 25.0 mg/kg/injection, schedule: Q04DX003 (ip), vehicle: Klucel (hydroxypropylcellulose) (HPC)): 94 % of control

CC(=O)NC1CCC(CCC2CCCCC2)CC1 (stereo not given)
T/C (dose: 100.0 mg/kg/injection, schedule: Q04DX002 (ip), vehicle: saline with Tween-80): 98 % of control | T/C (dose: 200.0 mg/kg/injection, schedule: Q04DX002 (ip), vehicle: saline with Tween-80): 94 % of control | T/C (dose: 400.0 mg/kg/injection, schedule: Q04DX002 (ip), vehicle: saline with Tween-80): 98 % of control

O=C(O)c1cc(-c2cccs2)c(C(=O)O)s1
T/C (dose: 100.0 mg/kg/injection, schedule: Q04DX003 (ip), vehicle: other): 103 % of control | T/C (dose: 200.0 mg/kg/injection, schedule: Q04DX003 (ip), vehicle: other): 93 % of control

COc1ccc(CCN2CSC(=S)N(CCc3ccc(OC)c(OC)c3)C2)cc1OC
T/C (dose: 100.0 mg/kg/injection, schedule: Q01DX009 (ip), vehicle: Klucel (hydroxypropylcellulose) (HPC)): 97 % of control | T/C (dose: 100.0 mg/kg/injection, schedule: Q04DX003 (ip), vehicle: Klucel (hydroxypropylcellulose) (HPC)): 97 % of control | T/C (dose: 200.0 mg/kg/injection, schedule: Q01DX009 (ip), vehicle: Klucel (hydroxypropylcellulose) (HPC)): 100 % of control | T/C (dose: 200.0 mg/kg/injection, schedule: Q04DX003 (ip), vehicle: Klucel (hydroxypropylcellulose) (HPC)): 97 % of control | T/C (dose: 400.0 mg/kg/injection, schedule: Q01DX009 (ip), vehicle: Klucel (hydroxypropylcellulose) (HPC)): 94 % of control | T/C (dose: 400.0 mg/kg/injection, schedule: Q04DX003 (ip), vehicle: Klucel (hydroxypropylcellulose) (HPC)): 95 % of control

OCCOc1cc(Cl)c(Cl)cc1Cl
T/C (dose: 25.0 mg/kg/injection, schedule: Q04DX003 (ip), vehicle: carboxymethylcellulose (CMC)): 95 % of control | T/C (dose: 50.0 mg/kg/injection, schedule: Q01DX009 (ip), vehicle: carboxymethylcellulose (CMC)): 93 % of control and 102 % of control | T/C (dose: 50.0 mg/kg/injection, schedule: Q04DX003 (ip), vehicle: carboxymethylcellulose (CMC)): 101 % of control | T/C (dose: 100.0 mg/kg/injection, schedule: Q01DX009 (ip), vehicle: carboxymethylcellulose (CMC)): 101 % of control and 103 % of control | T/C (dose: 100.0 mg/kg/injection, schedule: Q01DX009 (ip), vehicle: saline with Tween-80): 103 % of control | T/C (dose: 100.0 mg/kg/injection, schedule: Q04DX002 (ip), vehicle: carboxymethylcellulose (CMC)): 102 % of control and 103 % of control | T/C (dose: 100.0 mg/kg/injection, schedule: Q04DX003 (ip), vehicle: carboxymethylcellulose (CMC)): 95 % of control | T/C (dose: 200.0 mg/kg/injection, schedule: Q01DX009 (ip), vehicle: saline with Tween-80): 87 % of control | T/C (dose: 200.0 mg/kg/injection, schedule: Q04DX002 (ip), vehicle: carboxymethylcellulose (CMC)): 103 % of control

CCCCCCCC/C=C\CCCCCCCC(=O)OCCCCCC
T/C (dose: 100.0 mg/kg/injection, schedule: Q01DX009 (ip), vehicle: saline sonified): 98 % of control | T/C (dose: 200.0 mg/kg/injection, schedule: Q01DX009 (ip), vehicle: saline sonified): 102 % of control | T/C (dose: 400.0 mg/kg/injection, schedule: Q01DX009 (ip), vehicle: saline sonified): 93 % of control

NNC(=O)CC(=O)NN
T/C (dose: 50.0 mg/kg/injection, schedule: Q01DX001 (ip), vehicle: saline): 97 % of control | T/C [1]: 106 % of control | T/C [4]: 110 % of control | T/C [2]: 97 % of control | T/C (dose: 200.0 mg/kg/injection, schedule: Q04DX003 (ip), vehicle: saline): 111 % of control | T/C [3]: 97 % of control

ClC1OCCOC1Cl (stereo not given)
T/C (dose: 50.0 mg/kg/injection, schedule: Q01DX009 (ip), vehicle: saline): 102 % of control | T/C (dose: 100.0 mg/kg/injection, schedule: Q01DX009 (ip), vehicle: saline): 91 % of control | T/C [4]: 92 % of control | T/C (dose: 200.0 mg/kg/injection, schedule: Q01DX009 (ip), vehicle: saline): 100 % of control

Source: PubChem BioAssay AID248 (DTP/NCI, 2004)
